Source: BindingDB's records for doi:10.1021/jm980063g (Research Triangle Institute, 1998)

Assay: The compound was tested for antagonist activity by selective inhibition of [35S]GTP-gamma-S, binding in Guinea pig caudate stimulated by […] (Opioid receptor delta 1)

## C[C@H]1CN(C/C=C/c2ccccc2)CC[C@@]1(C)c1cccc(O)c1 [3-[(3R,4R)-3,4-Dimethyl-1-((E)-3-phenyl-allyl)-piperidin-4-yl]-phenol]
  Ki: 1.5 nM

## Cc1ccccc1/C=C/CN1CC[C@@](C)(c2cccc(O)c2)[C@@H](C)C1 [RTI-5989-25]
  Ki: 0.355 nM
